According to ChEMBL document CHEMBL1159134, “Heterocyclic guanidines as calcium antagonists” (Bioorg Med Chem Lett, 1994):
Where “and” joins values, the source holds several entries; their conditions need not be identical. Equal values may be shown once.

Experiments:
[1] = target: T1, Voltage-dependent L-type calcium channel subunit alpha-1C (Rattus norvegicus, UniProt P22002); assay: Binding of [3H]nitrendipine to calcium channel in rat heart membranes was determined; assay type: cell membranes, Membrane
[2] = Calcium channel-blocking effect was assessed in potassium ion depolarized guinea pig ileum strips by recording the contractile responses produced by varying concentrations of calcium chloride; assay type: functional, tissue-based; settings: Cavia porcellus, read-out: pA2 (converted)
[3] = target: T1, Voltage-dependent L-type calcium channel subunit alpha-1C; assay: Binding of [3H]nitrendipine to calcium channel in rat heart membranes; assay type: cell membranes, Membrane
[4] = target: Voltage-gated L-type calcium channel (Rattus norvegicus, UniProt P22002+Q02485+P27732); assay: Binding of [3H]nitrendipine to calcium channel in rat cerebral cortex; assay type: tissue-based

T1 sequence (P22002 whole entry): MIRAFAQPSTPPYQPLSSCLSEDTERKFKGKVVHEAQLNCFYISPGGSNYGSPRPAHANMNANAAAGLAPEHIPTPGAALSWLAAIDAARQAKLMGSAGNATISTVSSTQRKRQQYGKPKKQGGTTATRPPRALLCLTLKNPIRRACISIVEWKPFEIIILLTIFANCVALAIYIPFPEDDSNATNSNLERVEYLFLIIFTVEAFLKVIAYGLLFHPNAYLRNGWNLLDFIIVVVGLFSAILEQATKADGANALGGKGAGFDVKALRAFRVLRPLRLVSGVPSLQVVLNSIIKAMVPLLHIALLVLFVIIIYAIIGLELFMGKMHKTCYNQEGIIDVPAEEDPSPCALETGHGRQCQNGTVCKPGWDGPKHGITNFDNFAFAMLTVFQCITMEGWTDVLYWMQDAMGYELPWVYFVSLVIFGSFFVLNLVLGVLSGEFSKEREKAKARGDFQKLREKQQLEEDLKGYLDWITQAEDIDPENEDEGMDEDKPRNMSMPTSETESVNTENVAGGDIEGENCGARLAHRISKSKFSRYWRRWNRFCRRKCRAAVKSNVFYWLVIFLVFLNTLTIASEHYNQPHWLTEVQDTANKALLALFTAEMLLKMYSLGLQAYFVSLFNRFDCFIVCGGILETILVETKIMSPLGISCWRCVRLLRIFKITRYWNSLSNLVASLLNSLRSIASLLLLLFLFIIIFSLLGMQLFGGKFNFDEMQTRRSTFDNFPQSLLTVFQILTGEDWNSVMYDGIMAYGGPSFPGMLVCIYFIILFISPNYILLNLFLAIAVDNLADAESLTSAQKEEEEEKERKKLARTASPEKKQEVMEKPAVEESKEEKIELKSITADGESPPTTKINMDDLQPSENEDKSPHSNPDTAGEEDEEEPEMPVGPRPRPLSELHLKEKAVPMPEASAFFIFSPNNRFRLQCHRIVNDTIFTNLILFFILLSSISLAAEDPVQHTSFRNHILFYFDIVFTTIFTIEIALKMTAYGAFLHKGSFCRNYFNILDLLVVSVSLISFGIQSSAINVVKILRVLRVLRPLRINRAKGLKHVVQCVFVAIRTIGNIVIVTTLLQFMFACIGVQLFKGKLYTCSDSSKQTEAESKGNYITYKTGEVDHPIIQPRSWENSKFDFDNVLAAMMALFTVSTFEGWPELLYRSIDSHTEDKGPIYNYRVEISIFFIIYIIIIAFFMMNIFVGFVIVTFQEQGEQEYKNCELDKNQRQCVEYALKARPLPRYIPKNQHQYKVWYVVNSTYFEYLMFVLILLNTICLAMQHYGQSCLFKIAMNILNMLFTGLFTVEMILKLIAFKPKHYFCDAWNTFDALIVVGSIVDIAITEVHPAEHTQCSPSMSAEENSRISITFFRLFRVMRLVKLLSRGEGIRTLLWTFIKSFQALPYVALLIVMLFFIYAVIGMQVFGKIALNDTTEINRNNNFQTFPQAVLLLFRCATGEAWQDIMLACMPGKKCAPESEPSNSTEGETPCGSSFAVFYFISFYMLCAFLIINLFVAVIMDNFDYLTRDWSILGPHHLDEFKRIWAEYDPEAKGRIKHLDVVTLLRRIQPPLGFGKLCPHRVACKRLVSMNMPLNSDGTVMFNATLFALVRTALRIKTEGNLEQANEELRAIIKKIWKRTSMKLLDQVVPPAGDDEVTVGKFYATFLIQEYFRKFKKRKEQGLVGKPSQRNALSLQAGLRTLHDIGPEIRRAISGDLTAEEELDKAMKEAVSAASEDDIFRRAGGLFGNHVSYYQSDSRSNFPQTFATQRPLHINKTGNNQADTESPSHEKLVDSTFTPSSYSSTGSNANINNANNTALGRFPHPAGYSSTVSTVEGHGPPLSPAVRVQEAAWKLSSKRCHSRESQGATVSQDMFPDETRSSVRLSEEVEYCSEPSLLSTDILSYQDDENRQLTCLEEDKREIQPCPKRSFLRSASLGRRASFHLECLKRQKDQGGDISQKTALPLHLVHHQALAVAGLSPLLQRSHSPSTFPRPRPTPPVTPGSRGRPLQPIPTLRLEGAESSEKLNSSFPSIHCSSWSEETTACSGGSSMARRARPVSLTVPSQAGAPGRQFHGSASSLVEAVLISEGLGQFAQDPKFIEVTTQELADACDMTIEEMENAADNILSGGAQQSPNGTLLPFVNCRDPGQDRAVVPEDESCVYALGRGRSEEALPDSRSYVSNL

IC50 [1] [nM]	EC50 [3]	EC50 [4] [nM]	Structure (SMILES)	Kb [2] [nM]
> 1000			c1ccc(C(CCN/C2=N/CCCCCN2)c2ccccc2)cc1	37.2
> 1000			c1ccc(C(CCNC2=NCCCN2)c2ccccc2)cc1	34.7
> 1000			c1ccc(C(CNC2=NCCCN2)c2ccccc2)cc1	776
> 1000			CN1CCN=C1NCCC(c1ccccc1)c1ccccc1	257
> 1000			c1ccc(C(CNC2=NCCCCN2)c2ccccc2)cc1	550
> 1000			c1ccc(C(CCNC2=NCCCCN2)c2ccccc2)cc1	240
> 1000			c1ccc(C(CCNC2=N[C@H]3CCCC[C@@H]3N2)c2ccccc2)cc1	132
> 1000			c1ccc(C(CNC2=NCCN2)c2ccccc2)cc1	676
> 1000			c1ccc(C(NC2=NCCN2)c2ccccc2)cc1	2510
> 1000			c1ccc(C(CCNC2=NCCN2)c2ccccc2)cc1	57.5
> 1000			c1ccc(C(CNC2=NCCCCCN2)c2ccccc2)cc1	251
> 1000			CN1CCCN=C1NCCC(c1ccccc1)c1ccccc1	240

More lines, now with the values behind:

Structure (SMILES)	IC50 [1] [nM]	EC50 [3]	EC50 [4] [nM]	Kb [2] [nM]
c1ccc(C(CNC2=N[C@H]3CCCC[C@@H]3N2)c2ccccc2)cc1	> 1000			141
CN1CCCN=C1NCC(c1ccccc1)c1ccccc1	> 1000			1100
c1ccc([C@@H]2CCC[C@@H]2N/C2=N/CCCCCCCCCCC2)cc1		61 nM and 34 nM		
c1ccc(C(CCNC2=NCc3ccccc3CN2)c2ccccc2)cc1	> 1000			50.1
CN1CCN=C1NCC(c1ccccc1)c1ccccc1	> 1000			1860
CN1CCN=C1NCCCC(c1ccccc1)c1ccccc1	> 1000			170
c1ccc(C(CNC2=NCc3ccccc3CN2)c2ccccc2)cc1	> 1000			81.3
CCCC(CN/C1=N/CCCCCCCCCCC1)(c1ccccc1)c1ccccc1	> 1000	34 nM	61	53.7
COc1ccc([C@@H]2Sc3ccccc3N(CCN(C)C)C(=O)[C@@H]2OC(C)=O)cc1 [DILTIAZEM]				41.7
